# Test results from patent US8569298B2, “Pyridine compounds” (Astrazeneca AB, priority 2008, dated 2013).
# Target: T1, FAK enzyme (6 His tagged kinase domain, GenBank NP—722560) (Homo sapiens, UniProt Q05397)
# T1 construct: 6 His; made in house; host or cells: insect cell culture infected with baculovirus
# Assay: In vitro enzyme assay (a): sandwich ELISA of FAK tyrosine kinase activity on polyGAT peptide, TMB colorimetric endpoint
# Type: biochemical
# Details: in vitro Enzyme Assay test (a); ATP at Km; geometric mean of n > 1 measurements, values marked * tested once
# Description: (a) In Vitro Enzyme Assay
# A sandwich ELISA assay with a 3,3′,5,5′-tetramethyl benzidine (TMB) colorimetric endpoint was used in order to determine the level of effect of selected compounds on inhibition of FAK protein tyrosine kinase enzyme activity. A synthetic tyrosine containing peptide is coated onto a plastic surface, the level of phosphorylation of these tyrosine residues by the kinase enzyme in the presence of inhibitors is measured using an antibody that binds specifically to phosphorylated tyrosine residues. The amount of antibody bound to substrate is proportional to the level of enzyme catalysis.
# Assay Protocol to Identify Inhibitors of Focal Adhesion Kinase (FAK).
# A PlateMate Plus™ 384 automated liquid handling unit with a 100 μl disposable tip head was used to make all the non compound reagent additions and a Tecan 384PW plate washer with 384 head was used for all wash steps. Initially Matrix 384 well polystyrene plates (Cat #:4311) were coated with 40 μl/well of a 0.0375 mg/ml solution of synthetic poly peptide (polyGAT, Sigma Cat #:P3899) dissolved in phosphate buffered saline (PBS). Plates were stored overnight at 4° C. Immediately before use the coating solution was aspirated out and each well washed with 2×100 μl of PBS+0.05% Tween 20. To remove surplus phosphate, the wells were then washed with 2×100 μl 50 mM HEPES buffer pH 7.4. Plates were blotted dry before the addition of compounds. Compounds were tested over a 12 point dose range, a Labcyte Echo 550 was used to dispense compounds in nl volumes and back fill with DMSO. The final concentration of compound in the assay was dependent on the starting concentration of compound. For a 10 mM stock compound the final assay dose ranged from 100 μM down to […]. Control wells containing 120 nl DMSO (Max) or 120 nl of 10 mM staurosporine (LC Laboratories, Boston, USA Cat #: S-9300) (Min) were included in each plate. 10 ul of 5% dimethyl sulfoxide v/v (DMSO, Fisher Scientific) was added to each well immediately prior to addition of 10 μl of a co-factor solution containing 80 mM MgCl2 (Sigma Cat #: M1028); 80 mM MnCl2 (Sigma Cat #: M1787); ATP at a concentration calculated to enable the initial reaction velocity to progress at half the maximum velocity (Km for ATP) (Sigma Cat #:A7699). A final addition of 20 μl of enzyme solution containing 100 mM HEPES pH7.4; 0.2 mM sodium vanadate (Sigma Cat #:S6508); 0.2 g/l bovine serum albumin (BSA, Sigma Cat #: A7888); 0.2 mM dithioreitol (Sigma Cat #: 5545); 0.1% Triton X100 (Sigma Cat #:X100); FAK enzyme (20 μl/ml) was made to each well to start the assay running FAK enzyme was generated from an insect culture infected with baculo virus containing the DNA sequence encoding the 6 His tagged kinase domain (GenBank NP_722560).
# Plates were left at room temperature for 25 minutes before 10 μl of 500 mM ethylenediaminetetraacetic acid (EDTA) was added to stop the assay and the wells were immediately washed 3×100 μl with PBS+0.05% Tween 20. A 4G10 antibody (Millipore Cat #: 16-105; 16-184) with a directly conjugated horse radish peroxidase (HRP) was used to detect the phosphorylation of the substrate by the FAK. 40 μl of PBS+0.05% Tween 20 containing 0.5% BSA and 0.1 μl/ml antibody was added to each well and left for 1 hour at room temperature to allow the antibody to bind. After this period the wells were again washed with 3×100 μl of PBS+0.05% Tween 20. TMB (Sigma Cat #: T2885) was used as a substrate for the HRP. Phosphate-citrate buffer was made up using capsules provided by Sigma (Cat #: P4922) following the manufacturers guidelines. TMB was dissolved at a concentration of 1 mg/ml in DMSO and let down to a final concentration of 0.05 mg/ml with the phosphor-citrate buffer. 40 μl of the TMB solution was added to each assay well and left for 30 minutes for the blue colour to develop. […]
# T1 sequence (Q05397 422-680 limits assumed): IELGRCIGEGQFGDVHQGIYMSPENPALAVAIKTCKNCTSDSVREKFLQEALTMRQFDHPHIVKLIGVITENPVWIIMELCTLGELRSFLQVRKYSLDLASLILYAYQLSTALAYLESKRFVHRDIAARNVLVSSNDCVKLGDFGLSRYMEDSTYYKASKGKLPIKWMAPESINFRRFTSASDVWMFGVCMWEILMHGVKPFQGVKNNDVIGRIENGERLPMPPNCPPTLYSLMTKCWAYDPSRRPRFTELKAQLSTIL
row,IC50,Compound
1,65 nM,"CNC(=O)c1ccccc1Nc1cc(Nc2cn(C)nc2C)ncc1C#N [Example 1.01, 2-[[5-Cyano-2-[(1,3-dimethylpyrazol-4-yl)amino]-4-pyridyl]amino]-N-methyl-benzamide]"
2,102 nM,"CNC(=O)c1ccccc1Nc1cc(Nc2cc(OC)nn2C)ncc1C#N [Example 1.02, 2-[[5-cyano-2-[(5-methoxy-2-methylpyrazol-3-yl)amino]pyridin-4-yl]amino]-N-methylbenzamide]"
3,554 nM,"CON(C)C(=O)c1ccccc1Nc1cc(Nc2cn(C)nc2C)ncc1C#N [Example 1.03, 2-[[5-Cyano-2-[(1,3-dimethylpyrazol-4-yl)amino]-4-pyridyl]amino]-N-methoxy-N-methyl-benzamide]"
4,14 nM,"CN1CCc2cccc(Nc3cc(Nc4cnn(C)c4)ncc3C#N)c2C1=O [Example 1.04, 4-[(2-Methyl-1-oxo-3,4-dihydroisoquinolin-8-yl)amino]-6-[(1-methylpyrazol-4-yl)amino]pyridine-3-carbonitrile]"
5,4 nM,"Cc1cc(Nc2cc(Nc3cccc4c3C(=O)N(C)CC4)c(C#N)cn2)nn1C [Example 1.05, 6-[(1,5-dimethylpyrazol-3-yl)amino]-4-[(2-methyl-1-oxo-3,4-dihydroisoquinolin-8-yl)amino]pyridinc-3-carbonitrile]"
6,20 nM,"COc1cc(Nc2cc(Nc3cccc4c3C(=O)N(C)CC4)c(C#N)cn2)n(C)n1 [Example 1.06, 6-[(5-methoxy-2-methylpyrazol-3-yl)amino]-4-[(2-methyl-1-oxo-3,4-dihydroisoquinolin-8-yl)amino]pyridine-3-carbonitrile]"
7,128 nM,"CN1CCC(n2cc(Nc3cc(Nc4cccc5c4C(=O)N(C)CC5)c(C#N)cn3)cn2)CC1 [Example 1.07, 4-[(2-methyl-1-oxo-3,4-dihydroisoquinolin-8-yl)amino]-6-[[1-(1-methyl-4-piperidyl)pyrazol-4-yl]amino]pyridine-3-carbonitrile]"
8,6 nM,"Cc1nn(C)cc1Nc1cc(Nc2cccc3c2C(=O)N(C)CC3)c(C#N)cn1 [Example 1.08, 6-[(1,3-dimethylpyrazol-4-yl)amino]-4-[(2-methyl-1-oxo-3,4-dihydroisoquinolin-8-yl)amino]pyridine-3-carbonitrile]"
9,19 nM,"Cc1nn(C)cc1Nc1cc(Nc2ccc(N3CCN(C(C)C)CC3)c3c2C(=O)N(C)C3)c(C#N)cn1 [Example 1.09, 6-[(1,3-Dimethylpyrazol-4-yl)amino]-4-[[7-(4-isopropylpiperazin-1-yl)-2-methyl-3-oxo-isoindolin-4-yl]amino]pyridine-3-carbonitrile]"
10,19 nM,"CNC(=O)c1ccccc1Nc1cc(Nc2cc(C)n(C)n2)ncc1C(F)(F)F [Example 2.01, 2-[[2-[(1,5-Dimethylpyrazol-3-yl)amino]-5-(trifluoromethyl)-4-pyridyl]amino]-N-methyl-benzamide]"
11,8 nM,"CNC(=O)c1ccccc1Nc1cc(Nc2cn(C)nc2C)ncc1C(F)(F)F [Example 2.02, 2-[[2-[(1,3-dimethylpyrazol-4-yl)amino]-5-(trifluoromethyl)-4-pyridyl]amino]-N-methyl-benzamide]"
12,44 nM,"CONC(=O)c1ccccc1Nc1cc(Nc2cn(C)nc2C)ncc1Cl [Example 3.01, 2-[[5-Chloro-2-[(1,3-dimethylpyrazol-4-yl)amino]-4-pyridyl]amino]-N-methoxy-benzamide]"
13,41 nM,"CONC(=O)c1ccccc1Nc1cc(Nc2cc(C)n(C)n2)ncc1Cl [Example 3.02, 2-[[5-chloro-2-[(1,5-dimethylpyrazol-3-yl)amino]-4-pyridyl]amino]-N-methoxy-benzamide]"
14,80 nM,"CNC(=O)c1ccccc1Nc1cc(Nc2cnn(CC(=O)N3CCCC3)c2)ncc1Cl [Example 3.03, 2-[[5-Chloro-2-[[1-(2-oxo-2-pyrrolidin-1-yl-ethyl)pyrazol-4-yl]amino]-4-pyridyl]amino]-N-methyl-benzamide]"
15,68 nM,"CNC(=O)c1ccccc1Nc1cc(Nc2cnn(CC(=O)N3CCCN(C)CC3)c2)ncc1Cl [Example 3.04, 2-[[5-chloro-2-[[1-[2-(4-methyl-1,4-diazepan-1-yl)-2-oxo-ethyl]pyrazol-4-yl]amino]-4-pyridyl]amino]-N-methyl-benzamide]"
16,90 nM,"CNC(=O)c1ccccc1Nc1cc(Nc2cnn(CC(=O)N3CCOCC3)c2)ncc1Cl [Example 3.05, 2-[[5-chloro-2-[[1-(2-morpholino-2-oxo-ethyl)prazol-4-yl]amino]-4-pyridyl]amino]-N-methyl-benzamide]"
17,99 nM,"CNC(=O)c1ccccc1Nc1cc(Nc2cnn(CC(=O)N(C)CCOC)c2)ncc1Cl [Example 3.06, 2-[[5-chloro-2-[[1-[2-(2-methoxyethyl-methyl-amino)-2-oxo-ethyl]pyrazol-4-yl]amino]-4-pyridyl]amino]-N-methyl-benzamide]"
18,48 nM,"CNC(=O)c1ccccc1Nc1cc(Nc2cnn(CC(=O)N3CCN(C)CC3)c2)ncc1Cl [Example 3.07, 2-[[5-chloro-2-[[1-[2-(4-methylpiperazin-1-yl)-2-oxo-ethyl]pyrazol-4-yl]amino]-4-pyridyl]amino]-N-methyl-benzamide]"
19,60 nM,"CNC(=O)c1ccccc1Nc1cc(Nc2cc(OC)nn2C)ncc1Cl [Example 3.08, 2-[[5-Chloro-2-[(5-methoxy-2-methylpyrazol-3-yl)amino]pyridin-4-yl]amino]-N-methylbenzamide]"
20,29 nM,"CNC(=O)c1ccccc1Nc1cc(Nc2cc(C)nn2C)ncc1Cl [Example 3.09, 2-[[5-chloro-2-[(2,5-dimethylpyrazol-3-yl)amino]-4-pyridyl]amino]-N-methyl-benzamide]"
21,45 nM,"CNC(=O)c1ccccc1Nc1cc(Nc2cc(C)n(C)n2)ncc1Cl [Example 3.10, 2-[[5-chloro-2-[(1,5-dimethylpyrazol-3-yl)amino]-4-pyridyl]amino]-N-methyl-benzamide]"
22,439 nM,"CNC(=O)c1ccccc1Nc1cc(Nc2cnn(C)c2)ncc1Cl [Example 3.11, 2-[[5-chloro-2-[(1-methylpyrazol-4-yl)amino]-4-pyridyl]amino]-N-methyl-benzamide]"
23,195 nM,"CNC(=O)c1ccccc1Nc1cc(Nc2cnn(C3CCN(C)CC3)c2)ncc1Cl [Example 3.12, 2-[[5-chloro-2-[[1-(1-methyl-4-piperidyl)pyrazol-4-yl]amino]-4-pyridyl]amino]-N-methyl-benzamide]"
24,128 nM,"CNC(=O)c1ccccc1Nc1cc(Nc2cnn(C3CCN(C(C)=O)CC3)c2)ncc1Cl [Example 3.13, 2-[(2-[[1-(1-acetyl-4-piperidyl)pyrazol-4-yl]amino]-5-chloro-4-pyridyl]amino]-N-methyl-benzamide]"
25,45 nM,"CNC(=O)c1ccccc1Nc1cc(Nc2cn(C)nc2C)ncc1Cl [Example 3.14, 2-[[5-chloro-2-[(1,3-dimethylpyrazol-4-yl)amino]-4-pyridyl]amino]-N-methyl-benzamide]"
26,670 nM,"CNC(=O)c1ccccc1Nc1cc(Nc2cnn(C3CCOCC3)c2)ncc1Cl [Example 3.15, 2-[[5-chloro-2-[(1-tetrahydropyran-4-ylpyrazol-4-yl)amino]-4-pyridyl]amino]-N-methyl-benzamide]"
27,93 nM,"CNC(=O)c1ccccc1Nc1cc(Nc2cc(C)[nH]n2)ncc1Cl [Example 3.16, 2-[[5-Chloro-2-[(5-methyl-1H-pyrazol-3-yl)amino]pyridin-4-yl]amino]-N-methylbenzamide]"
